Measurements as given in ChEMBL document CHEMBL1201862, “PubChem BioAssay data set” (2004).
The source made the active and inactive calls.

Assays:
[1] = molecular target: Eukaryotic translation initiation factor 4E (Mus musculus, UniProt P63073); test: eIF4E–eIF4G protein interaction inhibitors, dose response, biochemical, TR-FRET (AID 855); assay type: functional;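 note: potency for disrupting eIF4E binding to eIF4GI seen as loss of FRET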
[2] = molecular target: Peroxisome proliferator-activated receptor gamma/Nuclear receptor coactivator 2 (Homo sapiens, UniProt P37231); assay type: functional;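 note: agonist potency for raising coactivator recruitment to the receptor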
[3] = molecular target: Peroxisome proliferator-activated receptor gamma/Nuclear receptor coactivator 1 (Homo sapiens, UniProt P37231); assay type: functional;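 note: agonist potency as compounds enhance coactivator SRC-1 recruitment to PPARgamma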
[4] = molecular target: Peroxisome proliferator-activated receptor gamma/Nuclear receptor coactivator 3 (Homo sapiens, UniProt P37231); assay type: functional;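 note: agonist potency for raising coactivator recruitment to the receptor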
[5] = test system: HeLa; test: HeLa cell cytotoxicity, dose response, cytotoxicity control for MITF activator project, CellTiter-Glo luminescence, cherry-pick samples (AID 540259); assay type: functional, cell-based; conditions: Homo sapiens
[6] = molecular target: Cytochrome P450 2C9 (Homo sapiens, UniProt P11712)
[7] = NIH-3T3 fibroblast cytotoxicity, dose response, cytotoxicity control, cell-based, fluorescence, Alamar Blue, secondary assay (AID 2327); assay type: functional;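 note: NIH-3T3 mouse fibroblasts cultured with fluconazole at 8 µg/mL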
[8] = C. albicans growth with fluconazole, confirmation, fluorescence, retest (AID 2467); assay type: functional, cell-based
[9] = molecular target: Protein-tyrosine kinase 2-beta (Homo sapiens, UniProt Q14289);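 note: potency of inhibitors of PYK2 kinase phosphorylation of poly-GT substrate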
[10] = molecular target: T1, Adenosylmethionine-8-amino-7-oxononanoate aminotransferase (Mycobacterium tuberculosis, UniProt P9WQ81); test: Mycobacterium tuberculosis BioA enzyme inhibitor Measured in Biochemical System Using Plate Reader - 2163-02_Inhibitor_Dose_CherryPick_Activity.; assay type: functional, Mycobacterium tuberculosis UT205
T1 sequence (P9WQ81 whole entry): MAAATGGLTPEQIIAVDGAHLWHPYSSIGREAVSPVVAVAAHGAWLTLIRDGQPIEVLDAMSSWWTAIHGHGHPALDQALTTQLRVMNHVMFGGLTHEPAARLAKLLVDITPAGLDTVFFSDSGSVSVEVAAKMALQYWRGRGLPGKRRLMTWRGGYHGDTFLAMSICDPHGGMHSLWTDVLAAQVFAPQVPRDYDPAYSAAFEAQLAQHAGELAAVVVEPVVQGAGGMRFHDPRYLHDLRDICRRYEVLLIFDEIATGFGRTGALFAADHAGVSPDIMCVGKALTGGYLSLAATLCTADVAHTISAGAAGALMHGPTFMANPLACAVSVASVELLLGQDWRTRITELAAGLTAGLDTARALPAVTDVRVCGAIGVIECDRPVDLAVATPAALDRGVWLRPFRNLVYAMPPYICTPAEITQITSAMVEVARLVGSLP

[11] = cells; assay type: functional, cell-based
[12] = molecular target: T2, Trace amine-associated receptor 1 (Homo sapiens, UniProt Q96RJ0); test: Fluorescence-based cell-based high throughput dose response assay to identify agonists of the human trace amine associated receptor 1 (TAAR1).; assay type: functional
T2 sequence (Q96RJ0 whole entry): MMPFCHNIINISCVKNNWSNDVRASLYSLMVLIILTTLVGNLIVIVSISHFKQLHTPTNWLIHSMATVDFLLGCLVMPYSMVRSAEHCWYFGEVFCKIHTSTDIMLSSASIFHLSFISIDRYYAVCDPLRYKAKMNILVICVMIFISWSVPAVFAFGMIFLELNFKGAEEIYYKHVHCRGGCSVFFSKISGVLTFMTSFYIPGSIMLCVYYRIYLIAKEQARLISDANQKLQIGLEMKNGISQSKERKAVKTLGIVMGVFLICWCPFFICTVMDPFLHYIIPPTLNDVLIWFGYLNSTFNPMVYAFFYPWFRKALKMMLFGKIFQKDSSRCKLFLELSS

[13] = molecular target: T2, Trace amine-associated receptor 1; test: Counterscreen for agonists of the human trace amine associated receptor 1 (hTAAR1): Fluorescence-based cell-based high throughput dose response assay to identify hTAAR1 agonist that also desensitize TAAR1 receptor response.; assay type: functional
[14] = cells; assay type: functional, cell-based; remark: listed apart in the source
[15] = inhibitors of Vif binding to APOBEC3G peptide, primary screen, biochemical, TR-FRET, GST-Vif 1-94, biotin-A3G peptide, dose response retest (AID 1117319); assay type: functional;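 note: TR-FRET signal of purified GST-Vif binding a biotinylated A3G peptide; inhibitors lower the FRET signal by blocking Vif and A3G binding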
[16] = molecular target: Nonstructural protein 1 (Influenza A virus, UniProt Q194T2); assay type: functional, Influenza A virus (A/California/07/2009(H1N1))
[17] = molecular target: T3, Voltage-gated N-type calcium channel alpha-1B subunit/Amyloid beta A4 precursor protein-binding family A member 1 (Homo sapiens, UniProt Q00975+Q02410); assay type: protein assay
[18] = molecular target: T3, Voltage-gated N-type calcium channel alpha-1B subunit/Amyloid beta A4 precursor protein-binding family A member 1; assay type: protein assay; remark: listed apart in the source
[19] = molecular target: Induced myeloid leukemia cell differentiation protein Mcl-1 (Homo sapiens, UniProt Q07820); assay type: functional
[20] = Vero E6 cell cytotoxicity, dose response, cytotoxicity control for non-replicating M. tuberculosis project, secondary assay (AID 492998); assay type: functional, VeroE6; conditions: Vero C1008
[21] = cells; assay type: functional
[22] = test system: Streptococcus sp. 'group A'; test: growth inhibition of control SK(-) GAS strain, dose response, counter-screen for streptokinase expression inhibitor project, luminescence, kanamycin, BacTiterGlo, confirmation (AID 1900); assay type: functional, organism-based
[23] = test system: Streptococcus; test: Group A Streptococcus viability loss, dose response, counter-screen for streptokinase expression inhibitor project, luminescence, BacTiterGlo (AID 1915); assay type: functional, organism-based;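 note: potency for reduction of bacterial viability or growth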
[24] = THP-1 cell cytotoxicity, dose response, cytotoxicity control for non-replicating M. tuberculosis project (AID 489025); assay type: functional
[25] = molecular target: Voltage-dependent T-type calcium channel subunit alpha-1H (Homo sapiens, UniProt O95180); assay type: functional;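 note: channel activity triggered by adding a high calcium stimulation buffer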
[26] = molecular target: Paired box protein Pax-8 (Homo sapiens, UniProt Q06710); test: inhibitors of PAX8-driven TPO luciferase reporter, dose response, RMG-I cells, cherry-pick (AID 687027); assay type: functional, cell-based;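 note: luciferase reporter driven by Pax8 target thyroperoxidase promoter measured by SteadyGlo luminescence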
[27] = NIH:OVCAR-3 ovarian cancer cell cytotoxicity, dose response, PAX8 inhibitor project, plate reader, dry powder samples (AID 743044); assay type: functional, cell-based
[28] = IGROV1 ovarian cancer cell cytotoxicity, dose response, PAX8 inhibitor project, plate reader, dry powder samples (AID 743043); assay type: functional, cell-based; conditions: IGROV-1
[29] = cytotoxicity in OVCAR8 ovarian cancer cells, dose response, PAX8 project, cell-based, plate reader, dry powder samples (AID 743197); assay type: functional; conditions: OVCAR-8

Sequence of Protein-tyrosine kinase 2-beta (Q14289 whole entry): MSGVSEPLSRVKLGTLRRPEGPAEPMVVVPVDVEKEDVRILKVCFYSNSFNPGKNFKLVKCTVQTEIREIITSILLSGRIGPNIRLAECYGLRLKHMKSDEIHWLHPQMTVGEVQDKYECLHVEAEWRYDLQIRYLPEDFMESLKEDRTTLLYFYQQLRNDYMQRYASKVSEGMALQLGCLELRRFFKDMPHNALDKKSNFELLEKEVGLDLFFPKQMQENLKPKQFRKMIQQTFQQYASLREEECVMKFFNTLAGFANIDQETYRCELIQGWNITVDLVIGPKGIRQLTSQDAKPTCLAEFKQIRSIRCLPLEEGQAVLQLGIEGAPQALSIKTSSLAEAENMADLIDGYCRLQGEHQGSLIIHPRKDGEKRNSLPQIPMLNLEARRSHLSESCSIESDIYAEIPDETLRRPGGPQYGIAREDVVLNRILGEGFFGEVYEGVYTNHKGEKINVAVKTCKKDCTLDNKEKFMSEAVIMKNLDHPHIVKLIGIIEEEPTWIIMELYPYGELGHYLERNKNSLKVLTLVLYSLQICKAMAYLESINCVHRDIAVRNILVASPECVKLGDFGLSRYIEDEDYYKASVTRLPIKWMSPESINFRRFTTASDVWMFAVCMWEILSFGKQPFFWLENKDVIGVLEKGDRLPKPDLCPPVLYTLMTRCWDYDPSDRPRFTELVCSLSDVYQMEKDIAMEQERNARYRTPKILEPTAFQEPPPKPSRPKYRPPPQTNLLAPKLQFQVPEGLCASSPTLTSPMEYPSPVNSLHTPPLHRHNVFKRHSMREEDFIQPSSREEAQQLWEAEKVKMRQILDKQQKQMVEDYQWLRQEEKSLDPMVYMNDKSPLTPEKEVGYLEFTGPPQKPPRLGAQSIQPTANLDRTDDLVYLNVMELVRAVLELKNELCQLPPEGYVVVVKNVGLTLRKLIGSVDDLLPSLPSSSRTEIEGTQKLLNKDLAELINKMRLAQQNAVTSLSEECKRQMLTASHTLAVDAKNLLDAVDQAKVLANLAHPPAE
Sequence of Eukaryotic translation initiation factor 4E (P63073 whole entry): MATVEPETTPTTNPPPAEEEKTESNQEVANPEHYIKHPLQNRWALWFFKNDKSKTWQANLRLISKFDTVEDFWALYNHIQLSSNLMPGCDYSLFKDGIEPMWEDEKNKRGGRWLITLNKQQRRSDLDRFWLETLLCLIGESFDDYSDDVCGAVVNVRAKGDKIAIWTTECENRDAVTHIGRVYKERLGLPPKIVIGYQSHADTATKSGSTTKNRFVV
T3 sequence (Q00975 whole entry): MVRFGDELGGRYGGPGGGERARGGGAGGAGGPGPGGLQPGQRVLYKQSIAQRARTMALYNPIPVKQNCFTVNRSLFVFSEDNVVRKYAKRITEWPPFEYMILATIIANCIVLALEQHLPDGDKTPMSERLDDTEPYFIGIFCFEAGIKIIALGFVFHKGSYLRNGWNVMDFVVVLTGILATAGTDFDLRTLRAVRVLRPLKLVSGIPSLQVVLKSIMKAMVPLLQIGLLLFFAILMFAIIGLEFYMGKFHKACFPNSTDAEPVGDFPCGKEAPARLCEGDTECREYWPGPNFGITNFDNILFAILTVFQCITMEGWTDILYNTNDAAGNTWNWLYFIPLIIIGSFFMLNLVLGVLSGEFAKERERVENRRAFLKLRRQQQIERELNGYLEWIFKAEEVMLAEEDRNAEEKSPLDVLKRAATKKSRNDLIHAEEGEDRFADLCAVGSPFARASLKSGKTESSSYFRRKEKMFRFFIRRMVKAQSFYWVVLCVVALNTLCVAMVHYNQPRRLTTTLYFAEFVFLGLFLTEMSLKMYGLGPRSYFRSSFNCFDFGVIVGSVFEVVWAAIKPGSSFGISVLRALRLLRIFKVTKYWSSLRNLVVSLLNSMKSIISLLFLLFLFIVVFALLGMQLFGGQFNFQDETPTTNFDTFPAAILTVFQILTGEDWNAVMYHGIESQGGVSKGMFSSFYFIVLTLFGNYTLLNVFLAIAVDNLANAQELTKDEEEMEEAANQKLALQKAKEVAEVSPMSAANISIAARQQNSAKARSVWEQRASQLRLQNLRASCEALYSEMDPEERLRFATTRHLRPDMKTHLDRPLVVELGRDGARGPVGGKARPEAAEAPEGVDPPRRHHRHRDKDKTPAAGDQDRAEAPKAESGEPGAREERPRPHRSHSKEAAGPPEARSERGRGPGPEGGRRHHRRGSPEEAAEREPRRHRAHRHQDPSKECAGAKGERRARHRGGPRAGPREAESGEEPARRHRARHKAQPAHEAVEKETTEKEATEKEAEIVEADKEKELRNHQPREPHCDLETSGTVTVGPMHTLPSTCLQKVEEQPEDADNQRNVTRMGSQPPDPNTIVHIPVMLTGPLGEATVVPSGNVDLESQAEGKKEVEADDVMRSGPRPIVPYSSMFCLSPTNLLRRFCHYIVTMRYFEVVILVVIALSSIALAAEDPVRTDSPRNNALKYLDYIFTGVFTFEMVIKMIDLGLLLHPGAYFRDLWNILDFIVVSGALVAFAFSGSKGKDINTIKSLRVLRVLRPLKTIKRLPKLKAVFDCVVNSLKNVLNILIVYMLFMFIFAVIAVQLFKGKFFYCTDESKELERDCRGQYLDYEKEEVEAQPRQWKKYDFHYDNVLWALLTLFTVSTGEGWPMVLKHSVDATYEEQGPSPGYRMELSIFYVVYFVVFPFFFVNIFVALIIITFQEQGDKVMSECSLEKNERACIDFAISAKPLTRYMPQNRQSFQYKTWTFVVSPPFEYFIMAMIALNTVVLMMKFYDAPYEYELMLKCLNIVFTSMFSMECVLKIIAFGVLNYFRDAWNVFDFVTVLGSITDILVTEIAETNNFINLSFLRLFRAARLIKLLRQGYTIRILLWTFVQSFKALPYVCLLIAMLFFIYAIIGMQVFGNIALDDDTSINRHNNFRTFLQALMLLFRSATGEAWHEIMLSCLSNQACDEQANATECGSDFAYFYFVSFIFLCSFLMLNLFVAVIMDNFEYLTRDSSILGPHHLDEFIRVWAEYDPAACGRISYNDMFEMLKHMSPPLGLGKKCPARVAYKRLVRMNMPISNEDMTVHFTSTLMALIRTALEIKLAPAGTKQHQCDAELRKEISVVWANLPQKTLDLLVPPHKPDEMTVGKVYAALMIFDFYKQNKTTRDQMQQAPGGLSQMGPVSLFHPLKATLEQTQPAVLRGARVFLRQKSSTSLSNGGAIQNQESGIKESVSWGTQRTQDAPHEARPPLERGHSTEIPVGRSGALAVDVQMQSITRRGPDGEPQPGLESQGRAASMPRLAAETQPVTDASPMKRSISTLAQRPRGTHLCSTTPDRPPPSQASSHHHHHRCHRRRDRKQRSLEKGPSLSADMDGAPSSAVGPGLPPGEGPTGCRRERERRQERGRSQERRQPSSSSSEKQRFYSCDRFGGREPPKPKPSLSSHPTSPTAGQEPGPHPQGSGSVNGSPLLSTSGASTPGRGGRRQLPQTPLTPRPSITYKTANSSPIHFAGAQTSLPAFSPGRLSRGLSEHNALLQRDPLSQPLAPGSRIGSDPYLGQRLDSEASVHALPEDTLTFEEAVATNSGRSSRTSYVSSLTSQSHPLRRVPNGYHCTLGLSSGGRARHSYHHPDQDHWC
T3 sequence (Q02410 whole entry): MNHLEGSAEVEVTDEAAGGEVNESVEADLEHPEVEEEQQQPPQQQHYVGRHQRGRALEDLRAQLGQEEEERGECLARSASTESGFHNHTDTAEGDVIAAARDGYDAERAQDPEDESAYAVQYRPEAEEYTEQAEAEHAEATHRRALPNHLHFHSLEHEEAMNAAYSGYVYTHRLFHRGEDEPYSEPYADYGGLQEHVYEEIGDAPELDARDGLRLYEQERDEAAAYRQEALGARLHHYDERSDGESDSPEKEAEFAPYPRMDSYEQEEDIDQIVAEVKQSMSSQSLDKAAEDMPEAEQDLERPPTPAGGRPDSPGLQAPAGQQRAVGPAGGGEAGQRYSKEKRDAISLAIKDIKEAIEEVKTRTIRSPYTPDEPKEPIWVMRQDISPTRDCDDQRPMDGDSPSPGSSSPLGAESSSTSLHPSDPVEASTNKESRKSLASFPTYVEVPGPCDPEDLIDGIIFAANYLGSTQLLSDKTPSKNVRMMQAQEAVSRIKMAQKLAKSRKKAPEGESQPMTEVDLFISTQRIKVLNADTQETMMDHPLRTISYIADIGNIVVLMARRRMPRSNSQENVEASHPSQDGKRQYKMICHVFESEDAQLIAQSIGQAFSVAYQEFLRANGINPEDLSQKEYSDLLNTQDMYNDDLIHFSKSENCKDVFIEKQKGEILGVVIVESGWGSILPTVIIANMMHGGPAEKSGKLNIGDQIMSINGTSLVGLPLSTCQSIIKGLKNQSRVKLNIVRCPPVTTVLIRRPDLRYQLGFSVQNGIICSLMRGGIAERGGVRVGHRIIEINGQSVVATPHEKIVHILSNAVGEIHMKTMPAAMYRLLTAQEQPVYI
Sequence of Paired box protein Pax-8 (Q06710 whole entry): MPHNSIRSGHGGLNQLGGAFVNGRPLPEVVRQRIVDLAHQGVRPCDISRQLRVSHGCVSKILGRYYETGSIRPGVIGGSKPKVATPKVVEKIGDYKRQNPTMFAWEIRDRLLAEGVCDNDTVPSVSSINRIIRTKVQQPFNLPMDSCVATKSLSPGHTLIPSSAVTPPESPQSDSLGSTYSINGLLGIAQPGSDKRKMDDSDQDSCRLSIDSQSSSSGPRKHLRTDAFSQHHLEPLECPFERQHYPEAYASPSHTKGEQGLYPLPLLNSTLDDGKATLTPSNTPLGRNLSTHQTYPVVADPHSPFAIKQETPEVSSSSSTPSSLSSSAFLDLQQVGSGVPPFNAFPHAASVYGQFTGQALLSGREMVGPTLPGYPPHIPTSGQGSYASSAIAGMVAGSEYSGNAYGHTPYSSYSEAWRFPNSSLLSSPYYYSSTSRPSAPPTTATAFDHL
Sequence of Nonstructural protein 1 (Q194T2 whole entry): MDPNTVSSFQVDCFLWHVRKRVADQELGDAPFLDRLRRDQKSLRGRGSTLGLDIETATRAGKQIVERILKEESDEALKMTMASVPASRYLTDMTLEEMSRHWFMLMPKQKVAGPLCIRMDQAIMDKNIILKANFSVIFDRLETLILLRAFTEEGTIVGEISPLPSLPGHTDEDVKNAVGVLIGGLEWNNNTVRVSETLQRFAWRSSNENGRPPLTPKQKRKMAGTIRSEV

In the case of CCCCCC(=O)NC(N=C(S)NC1CCS(=O)(=O)C1)C(Cl)(Cl)Cl (configuration not stated), the IC50 [1] is reported as > 64 µM (inactive).

In the case of O=C(Nc1ccc(N2CCCCC2)cc1)c1cncc(Br)c1, the EC50 [2] is reported as > 79.4 µM (not active), the EC50 [3] is reported as > 79.4 µM (not active) and the EC50 [4] is reported as > 79.4 µM (not active). For the same molecule, the AC50 [5] was 50.2 µM (active) and the AC50 [6] was 14.1 µM (inconclusive).

For CCOC(=O)CNC(=O)c1sc2ncnc(N3CCc4ccccc4C3)c2c1C, the EC50 [7] was > 150 µM (inactive), the EC50 [8] was 3.42 µM (active) and the IC50 [9] was 41.7 µM (not active). The AC50 [10] was 4.06 µM (active).

With Nc1sc2c(c1C(=O)NCCc1ccccc1)CCC2 the IC50 [11] was > 29.9 µM (inactive), the EC50 [12] was 3.36 µM (active) and the IC50 [13] was 9.93 µM (active). For the same molecule, the EC50 [14] was > 29.9 µM (inactive).

In the case of O=C(O)c1cccc(NCc2ccncc2)c1, the IC50 [15] is reported as > 100 µM (active).

In the case of Cc1ccc2c(c1)C1CN(C)CCC1N2S(=O)(=O)c1ccc(Oc2ccc([N+](=O)[O-])cc2)cc1 (configuration not stated), the IC50 [16] is reported as > 100 µM (active).

In the case of Clc1cccc2c3c([nH]c12)CCNC3, the IC50 [11] is reported as > 29.9 µM (inactive), the EC50 [12] is reported as 1.36 µM (active) and the IC50 [13] is reported as 22.1 µM (inactive). The EC50 [14] was > 29.9 µM (inactive).

In the case of Cc1oc(-c2ccccc2Cl)nc1CS(=O)(=O)CC(=O)NCCc1ccccc1, the IC50 [11] is reported as 18.3 µM (inactive), the EC50 [12] is reported as 2.9 µM (active) and the IC50 [13] is reported as 8.19 µM (active). The EC50 [14] was > 29.9 µM (inactive).

In the case of CCC1=NNc2cccc3c(OC)ccc1c23, the IC50 [17] is reported as 0.586 µM (active), the IC50 [18] is reported as 0.521 µM (active) and the IC50 [9] is reported as 2.15 µM (active). The IC50 [19] was 8.79 µM (not active).

For CC(C)CCNC(=O)NC(=O)COC(=O)/C=C/c1cnc2ccccc2n1, the EC50 [2] was 32 µM (not active), the EC50 [3] was 49.5 µM (not active) and the EC50 [4] was 35.9 µM (not active).

For Cc1ccccc1NC(=O)Cn1nnc2c(cnn2-c2ccc(F)cc2)c1=O, the IC50 [1] was > 64 µM (inactive).

For CC(C)(C)c1ccc(-c2nc(C#N)c(NCCCn3ccnc3)o2)cc1, the CC50 [20] was > 20 µM (active) and the IC50 [21] was 25.4 µM (active).

With Cc1ccc2nsnc2c1S(=O)(=O)Nc1cccc2nsnc12 the IC50 [9] was 6.7 µM (active).

For Cc1cc(Nc2ccccc2)n(-c2nc3ccccc3[nH]2)n1, the EC50 [22] was 2.16 µM (active), the EC50 [23] was 5.5 µM (active) and the CC50 [24] was 38 µM (active). For the same molecule, the CC50 [20] was 18.8 µM (active) and the IC50 [21] was 1.07 µM (active).

In the case of CCCCn1nnc(NC(=O)c2ccc(-c3cccc(Cl)c3)o2)n1, the EC50 [25] is reported as 4.23 µM (active) and the IC50 [15] is reported as > 100 µM (active).

In the case of O=C(Nc1ccc2c(c1)OCCO2)C1CCC1, the IC50 [15] is reported as > 100 µM (active).

With O=C(CSc1nnc(CNc2ccccc2)o1)N1CCc2ccccc21 the IC50 [1] was > 64 µM (inactive).

For CN1CCC(O)(c2cccs2)C(C(=O)c2cccs2)C1 (configuration not stated), the CC50 [20] was > 20 µM (active) and the IC50 [21] was 15.4 µM (active).

For CN(CCc1ccccc1)C(C(=O)c1ccc2c(c1)OCO2)c1nnnn1-c1ccccc1NC(=O)OC(C)(C)C (configuration not stated), the IC50 [11] was > 29.9 µM (inactive), the EC50 [12] was 0.881 µM (active) and the IC50 [13] was 3.26 µM (active). The EC50 [14] was > 29.9 µM (inactive).

In the case of O=C1CN(S(=O)(=O)Cc2ccccc2)C[C@@H]2[C@@H](c3ccc(C#CC4CC4)cc3)[C@@H](CO)N12, the AC50 [26] is reported as 4.66 µM (active), the AC50 [27] is reported as 5.98 µM (active) and the AC50 [28] is reported as 61 µM (active). For the same molecule, the AC50 [29] was 53.1 µM (active).

For C[C@@H]1CN([C@@H](C)CO)C(=O)Cc2cc(NC(=O)CCC(F)(F)F)ccc2O[C@H]1CN(C)Cc1ccc(Oc2ccccc2)cc1, the AC50 [26] was 10.6 µM (active), the AC50 [27] was 26.4 µM (active) and the AC50 [28] was 41.7 µM (active).
